Reference: patent US20080132710A1, “ATRASENTAN HYDROCHLORIDE CRYSTALLINE FORM 2” (ABBOTT LABORATORIES, priority 2006, published 2008)
Where a name gives a salt, the structure may show the parent alone.

Experiment: Crystalline form of atrasentan hydrochloride found in solvents over time (conversion to Form 2) at 25° C.
Format: physicochemical
Parameters: key: 1, 2 and 3 mean Atrasentan Hydrochloride Crystalline Forms 1, 2 and 3, respectively.; 1, 2 and 3 mean Atrasentan Hydrochloride Crystalline Forms 1, 2 and 3, respectively.; 1, 2 and 3 mean Atrasentan Hydrochloride Crystalline Forms 1, 2 and 3, respectively
Procedure: Examples of representative solvents that are useful for converting a particular crystalline form of atrasentan hydrochloride to Atrasentan Hydrochloride Crystalline Form 2 having substantial crystalline purity at 25° C. are shown in TABLE 2.

CCCCN(CCCC)C(=O)CN1C[C@H](c2ccc3c(c2)OCO3)[C@@H](C(=O)O)[C@@H]1c1ccc(OC)cc1 [atrasentan hydrochloride, (2R,3R,4S)-(+)-2-(4-methoxyphenyl)-4-(1,3-benzodioxol-5-yl)-1-(N,N-di(n-butyl)aminocarbonylmethyl)pyrrolidine-3-carboxylic acid]
crystalline form present (0.1M HCl, week 1): 1
crystalline form present (0.1M HCl, week 2): 1
crystalline form present (0.1M HCl, week 4): 1
crystalline form present (0.1M HCl, week 9): 2
crystalline form present (0.1M HCl, week 16): 2
crystalline form present (IPA (isopropyl alcohol), week 1): 1
crystalline form present (IPA (isopropyl alcohol), week 2): 1
crystalline form present (IPA (isopropyl alcohol), week 4): 2
crystalline form present (IPA (isopropyl alcohol), week 9): 2
crystalline form present (IPA (isopropyl alcohol), week 16): 2
crystalline form present (PEG 400 (polyethylene glycol), week 1): 1
crystalline form present (PEG 400 (polyethylene glycol), week 2): 1
crystalline form present (PEG 400 (polyethylene glycol), week 4): 1
crystalline form present (PEG 400 (polyethylene glycol), week 9): 1
crystalline form present (PEG 400 (polyethylene glycol), week 16): 2
crystalline form present (acetone, week 1): 2
crystalline form present (acetone, week 2): 2
crystalline form present (acetone, week 4): 2
crystalline form present (acetone, week 9): 2
crystalline form present (acetone, week 16): 2
crystalline form present (ethanol, week 1): 2
crystalline form present (ethanol, week 2): 2
crystalline form present (ethanol, week 4): 2
crystalline form present (ethanol, week 9): 2
crystalline form present (ethanol, week 16): 2
crystalline form present (ethyl acetate, week 1): 1
crystalline form present (ethyl acetate, week 2): 1
crystalline form present (ethyl acetate, week 4): 1
crystalline form present (ethyl acetate, week 9): 2
crystalline form present (ethyl acetate, week 16): 2
crystalline form present (nitromethane, week 1): 3
crystalline form present (nitromethane, week 2): 3
crystalline form present (nitromethane, week 4): 3
crystalline form present (nitromethane, week 9): 3
crystalline form present (nitromethane, week 16): 2
